According to paper PMC12118337, “Development of a Peptide Inhibitor Targeting the C‐SH2 Domain of the SHP2 Phosphatase” (Chembiochem, 2025):
Residues, ends and D or L forms follow the SMILES beside them. *: point of attachment. 5FAM = O=C1OC2(c3ccc(O)cc3Oc3cc(O)ccc32)c2ccc(C(=O)*)cc21; X1 = O=C(O)C(C(=O)O)*

Test system: WT Jurkat T cells
Assay: Peptide cellular uptake by confocal fluorescence microscopy, Jurkat
Assay type: cell-based
Details: confocal fluorescence microscopy via FAM group, live cells, 50 or 100 μM peptide, 2 or 5 h, 37 °C; three independent experiments
Description: Multiply charged ions were selected for higher collisional dissociation (HCD) using a normalized collision energy (NCE) of 28%, fragmentation targeting for the 12 most abundant precursor ions. Fragment ions were measured with a resolution of 35,000 with a scan range of 200-2,000 m/z and an AGC target of 1E5. A dynamic exclusion time of 45 s with a maximum ion time of 120 ms and an isolation window of 3 m/z was set. Mass spectrometric data evaluation was performed using MaxQuant 1.6.5.0,[5] searching against a homo sapiens UniProt sequence database (2021/02; 218,230 entries including isoforms) supplemented with the protein sequences of the respective peptide used for the experiment. […] The protein list was analysed with Perseus v2.0.11.[6] […] The data was further analysed with the R language package and identified proteins compared with the CRAPome database (H. sapiens single step epitope tag AP-MS background contaminant list) to mitigate the influence of background contaminants (Table S2).[7] […] The significance thresholds were set to alpha 0.01 and a calculated log2 protein ratio of 4. […]
6. Peptide cellular uptake by fluorescence microscopy
The cell permeability of FAM-labelled peptides in WT Jurkat T cells (peptide 26 and peptide 28) and WT HeLa cells (peptide 28) was visualised by fluorescence microscopy. […]

## CC[C@H](C)[C@H](NC(=O)[C@@H](NC(=O)[C@H](C)NC(=O)[C@H](Cc1ccc(OC(C(=O)O)C(=O)O)cc1)NC(=O)[C@H](CCC(=O)O)NC(=O)[C@@H](NC(=O)[C@H](CCC(N)=O)NC(=O)c1ccc2c(c1)C(=O)OC21c2ccc(O)cc2Oc2cc(O)ccc21)[C@@H](C)O)[C@@H](C)O)C(=O)N[C@@H](CCCCN)C(=O)N[C@@H](Cc1c[nH]cn1)C(=O)N1CCC[C@H]1C(N)=O [peptide 26] (5FAM-QTEY(X1)ATIKHP-NH2)
  cellular uptake in Jurkat cells: no cell uptake
